Laboratory results: US20260200890A1, “ADAR1 INHIBITORS AND METHODS OF USING THE SAME” (AVAMMUNE THERAPEUTICS INC., priority 2022, published 2026)
pEC50, pKd: −log10 of the molar value.

Experiments:
Zα domain of ADAR1 p150 = target: T1, Zα domain of ADAR1 p150 (Homo sapiens, UniProt P55265); test: SPR binding assay; settings: 6× his tag Zα domain immobilized on CM5 chip, analyte 0-25 μM
T1 construct: 10 μg/ml of Zα domain of ADAR1 was immobilized on CM5 chip using anti-HIS antibody; made in house
T1 sequence (P55265 133-199 limits assumed): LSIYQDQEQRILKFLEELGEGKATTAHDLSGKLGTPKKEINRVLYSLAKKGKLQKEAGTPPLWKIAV
Experimental: 6× his tag Za domain of ADAR1 p150 was purified using bacterial purification system. Protein was isolated from supernatant of cell lysate using Ni-NTA resin. For binding assay using SPR, 10 μg/ml of Zα domain of ADAR1 was immobilized on CM5 chip using anti-HIS antibody. Binding was quantified using the following condition below: • Analyte: 25, 12.5, 6.25, 3.125, 1.56, 0.78, 0 μM • Contact time—60 seconds, • Dissociation time—320 seconds • Flow rate—30 μL/minute Running buffer-PBSP+5% DMSO • After curve fitting, Kd values for synthesized compounds was quantified using the instrument software.

ADAR1 = target: T2, ADAR1 (Homo sapiens, UniProt P55265); test: ADAR1 Inhibition Assay (IFN fold-induction, Quanti-Luc luminescence, p110 KO A549 dual cells); type: cell-based; settings: IFN fold-induction vs DMSO, 24 and 48 h
T2 construct: endogenous in cells; host or cells: p110 KO A549 dual cells
T2 sequence (P55265 1-1226): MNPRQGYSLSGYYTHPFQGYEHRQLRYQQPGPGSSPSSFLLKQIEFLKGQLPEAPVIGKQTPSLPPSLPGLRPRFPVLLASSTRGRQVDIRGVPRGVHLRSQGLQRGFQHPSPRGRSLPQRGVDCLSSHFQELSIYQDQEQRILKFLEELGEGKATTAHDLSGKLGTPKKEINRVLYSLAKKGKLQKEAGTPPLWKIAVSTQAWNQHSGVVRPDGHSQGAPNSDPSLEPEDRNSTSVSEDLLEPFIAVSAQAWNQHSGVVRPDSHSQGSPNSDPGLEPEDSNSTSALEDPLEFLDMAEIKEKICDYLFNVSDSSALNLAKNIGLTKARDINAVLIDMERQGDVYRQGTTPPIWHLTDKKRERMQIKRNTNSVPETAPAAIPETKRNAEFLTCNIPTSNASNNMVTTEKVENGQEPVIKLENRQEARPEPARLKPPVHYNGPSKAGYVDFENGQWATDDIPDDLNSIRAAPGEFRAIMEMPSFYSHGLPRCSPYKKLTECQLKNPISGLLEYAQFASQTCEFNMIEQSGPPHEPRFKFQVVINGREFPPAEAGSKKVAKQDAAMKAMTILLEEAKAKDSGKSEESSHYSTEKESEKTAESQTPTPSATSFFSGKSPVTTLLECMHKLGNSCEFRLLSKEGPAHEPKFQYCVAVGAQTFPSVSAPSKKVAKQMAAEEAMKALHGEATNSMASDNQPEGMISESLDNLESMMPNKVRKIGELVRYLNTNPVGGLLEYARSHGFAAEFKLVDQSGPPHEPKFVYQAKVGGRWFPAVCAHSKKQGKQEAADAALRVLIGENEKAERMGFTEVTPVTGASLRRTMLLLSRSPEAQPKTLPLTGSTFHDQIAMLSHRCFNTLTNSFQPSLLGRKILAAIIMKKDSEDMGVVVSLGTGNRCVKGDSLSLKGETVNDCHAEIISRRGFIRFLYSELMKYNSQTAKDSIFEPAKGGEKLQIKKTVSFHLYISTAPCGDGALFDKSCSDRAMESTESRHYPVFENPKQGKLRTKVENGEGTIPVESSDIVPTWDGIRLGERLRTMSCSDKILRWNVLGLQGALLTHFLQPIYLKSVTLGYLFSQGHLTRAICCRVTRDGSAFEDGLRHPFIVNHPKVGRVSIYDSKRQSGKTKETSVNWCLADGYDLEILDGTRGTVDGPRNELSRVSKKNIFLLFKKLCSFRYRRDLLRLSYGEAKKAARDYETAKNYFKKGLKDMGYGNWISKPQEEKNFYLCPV
Summary of the method: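 p110 KO A549 dual cells (20,000/well) in supplemented DMEM, treated next day with compound at 1% final DMSO for 24 and 48 h at 37 °C, 5% CO2. Supernatant luminescence read with Quanti-Luc; IFN fold-induction = sample RLU/mean DMSO RLU, used for EC50.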

SMILES | pKd (Zα domain of ADAR1 p150) | pEC50 (ADAR1)
CCOC(=O)c1cc(-c2ccccc2)sc1NC(=O)CCS(=O)(=O)c1cccc(NS(C)(=O)=O)c1 [Compound 321] | ≥ 6.00 | < 4.00
CCOC(=O)c1cc(-c2ccccc2)sc1NC(=O)COC(=O)c1cccc(P(=O)(O)O)c1 [Compound 325] | ≥ 6.00 | < 4.00
CCOC(=O)c1cc(-c2ccccc2)sc1NC(=O)CNC(=O)Cc1cccc(C(F)(F)F)c1 [Compound 326] | ≥ 6.00 | < 4.00
CCOC(=O)c1cc(-c2ccccc2)sc1NC(=O)CNC(=O)Cc1ccc(S(C)(=O)=O)cc1 [Compound 327] | ≥ 6.00 | < 4.00
CCOC(=O)c1cc(-c2ccccc2)sc1NC(=O)CNC(=O)Cc1cccc(OC(F)(F)F)c1 [Compound 328] | ≥ 6.00 | < 4.00
CCOC(=O)c1cc(-c2ccccc2)sc1-c1coc(CNc2cccc(NS(C)(=O)=O)c2)c1 [Compound 329] | 5.00 to 6.00 | < 4.00
CCOC(=O)c1cc(-c2ccccc2)sc1NC(=O)CNC(=O)Cc1cccc(Br)c1 [Compound 330] | ≥ 6.00 | < 4.00
CCOC(=O)c1cc(-c2ccccc2)sc1NC(=O)COC(=O)c1cccc(P(=O)(OCC)OCC)c1 [Compound 343] | ≥ 6.00 | < 4.00
CCOC(=O)c1cc(-c2ccccc2)sc1NC(=O)CNC(=O)c1cccc(P(=O)(OCC)OCC)c1 [Compound 344] | < 4.60 | < 4.00
CCOC(=O)c1cc(N)nn1C(=O)COC(=O)c1cccc(NS(C)(=O)=O)c1 [Compound 346] | ≥ 6.00 | < 4.00
CCOC(=O)c1cc(-c2ccccc2)[nH]c1NC(=O)COC(=O)c1cccc(P(=O)(OCC)OCC)c1 [Compound 349] | < 4.60 | < 4.00
CCOC(=O)c1cc(-c2ccccc2)sc1NC(=O)CNC(=O)Cc1cccc(P(=O)(O)O)c1 [Compound 350] | ≥ 6.00 | < 4.00
CCOC(=O)c1cc(-c2ccccc2)sc1NC(=O)CNC(=O)Cc1cccc(OS(N)(=O)=O)c1 [Compound 351] | ≥ 6.00 | < 4.00
CCOC(=O)c1cc(-c2ccccc2)[nH]c1NC(=O)COC(=O)c1cccc(P(=O)(O)O)c1 [Compound 355] | ≥ 6.00 | < 4.00
CCOC(=O)c1sc(NC(=O)COC(=O)c2cccc(P(=O)(OCC)OCC)c2)nc1-c1ccccc1 [Compound 356] | < 4.60 | < 4.00
CCOC(=O)c1cc(-c2ccccc2)sc1NC(=O)CNC(=O)c1cccc(Br)c1 [Compound 358] | ≥ 6.00 | < 4.00
CCOC(=O)c1cc(-c2ccccc2)sc1NC(=O)COC(=O)c1cccc(C(=O)OC)c1 [Compound 359] | ≥ 6.00 | < 4.00
CCOC(=O)c1cc(-c2ccccc2)sc1NC(=O)C1CCN(C(=O)c2cccc(P(=O)(OCC)OCC)c2)C1 (stereo not shown) [Compound 361] | < 4.60 | 4.00 to 4.30
CCOC(=O)c1cc(-c2ccccc2)sc1NC(=O)CNC(=O)Cc1ccc(S(N)(=O)=O)cc1 [Compound 363] | ≥ 6.00 | < 4.00

SMILES | pKd (Zα domain of ADAR1 p150) | pEC50 (ADAR1)
CCOC(=O)c1cc(-c2ccccc2)sc1NC(=O)CN1C[C@H]2CC[C@@H](C1)N2S(C)(=O)=O [Compound 364] | < 4.60 | < 4.00
CCOC(=O)c1cc(-c2ccccc2)sc1NC(=O)CNC(=O)CCc1cccc(NS(C)(=O)=O)c1 [Compound 365] | ≥ 6.00 | < 4.00
CCOC(=O)c1cc(-c2ccccc2)sc1NC(=O)CNC(=O)Cc1ccc(Cl)c(NS(C)(=O)=O)c1 [Compound 366] | ≥ 6.00 | < 4.00
CCOC(=O)c1cc(-c2ccccc2)sc1NC(=O)CNC(=O)c1cccc(P(=O)(O)O)c1 [Compound 367] | ≥ 6.00 | < 4.00
CCOC(=O)c1cc(-c2ccccc2)sc1NC(=O)CC(=O)NCc1cccc(NS(C)(=O)=O)c1 [Compound 369] | < 4.60 | < 4.00
CCOC(=O)c1cc(-c2ccccc2)ncc1NC(=O)COC(=O)c1cccc(NS(C)(=O)=O)c1 [Compound 372] | < 4.60 | < 4.00
CCNC(=O)c1cc(-c2ccccc2)sc1NC(=O)CNC(=O)Cc1cccc(NS(C)(=O)=O)c1 [Compound 376] | ≥ 6.00 | < 4.00
CCOC(=O)c1cc(-c2ccccc2)sc1NC(=O)C1CCCCN1C(=O)Cc1cccc(NS(C)(=O)=O)c1 (stereo not shown) [Compound 380] | ≥ 6.00 | < 4.00
CCNC(=O)c1cc(-c2ccccc2)sc1NC(=O)CN(C)C(=O)Cc1cccc(NS(C)(=O)=O)c1 [Compound 384] | 5.00 to 6.00 | < 4.00
CCOC(=O)c1cc(-c2ccccc2)sc1NC(=O)Cn1cc(-c2cccc(P(=O)(OCC)OCC)c2)nn1 [Compound 385] | ≥ 6.00 | < 4.00
CCOC(=O)c1cc(-c2ccccc2)sc1NC(=O)Cn1cc(-c2cccc(P(=O)(O)O)c2)nn1 [Compound 386] | < 4.60 | < 4.00
CCOC(=O)c1cc(-c2ccccc2)ncc1NC(=O)CNC(=O)Cc1cccc(NS(C)(=O)=O)c1 [Compound 387] | ≥ 6.00 | < 4.00
CCOC(=O)c1cc(-c2ccc(P(=O)(O)O)cc2)sc1NC(=O)COC(=O)c1cccc(NS(C)(=O)=O)c1 [Compound 388] | ≥ 6.00 | < 4.00
CCOC(=O)c1cc(-c2ccc(P(=O)(OCC)OCC)cc2)sc1NC(=O)COC(=O)c1cccc(NS(C)(=O)=O)c1 [Compound 389] | < 4.60 | < 4.00
CCOC(=O)c1cc(-c2ccccc2)[nH]c1NC(=O)CNC(=O)c1cccc(NS(C)(=O)=O)c1 [Compound 395] | < 4.60 | < 4.00
CCOC(=O)c1cc(-c2ccccc2)sc1NC(=O)COC(=O)C1(c2cccc(NS(C)(=O)=O)c2)CCCC1 [Compound 396] | ≥ 6.00 | < 4.00
CCOC(=O)c1cc(-c2ccccc2)sc1NC(=O)[C@H]1CCN(Cc2cccc(P(=O)(O)O)c2)C1 [Compound 397] | ≥ 6.00 | < 4.00
CCOC(=O)c1cc(-c2ccccc2)sc1NC(=O)[C@@H]1CCN(Cc2cccc(P(=O)(O)O)c2)C1 [Compound 398] | < 4.60 | < 4.00
CCOC(=O)c1cc(-c2ccccc2)sc1NC(=O)COC(=O)c1cccc(S(=O)(=O)NC(C)=O)c1 [Compound 399] | ≥ 6.00 | < 4.00
